Where a name gives a salt, the structure may show the parent alone.
Assays:
alpha-parvin = alpha-parvin (Homo sapiens, UniProt Q9NVD7); details: H292 cell lysate preincubated with free compound (0-400 μM), then beads with immobilized compound
H358 cells = assay: Testing EMT transition on H358 NSCLC cell line (TGFbeta3 treatment, western blot); format: cell-based, human; details: 10 ng/mL TGFbeta3 plus compound 5 μM; for Level of E-cadherin: up to 13 days
Procedure: Cell culture medium was renewed every 3 days. Cell lysis was performed in PBS containing 1% NP-40 and protease inhibitors. After clearing by centrifugation at 12,000 g for 15 min at 4° C., proteins were separated by SDS-PAGE and processed for western blot analysis. Images were acquired using a compact digital camera (Luminescent Image Analyzer: Fujifilm, Tokyo, Japan) and quantified with ImageQuant TL (GE Healthcare, Waukesha, Wis., USA).

ILK = ILK (Homo sapiens, UniProt Q13418); details: H292 cell lysate preincubated with free compound (0-400 μM), then beads with immobilized compound
NSCLC patients [1] = details: single agent; patients for whom standard therapy for advanced disease has failed; cited from earlier work
PINCH = PINCH (Homo sapiens, UniProt P48059); details: H292 cell lysate preincubated with free compound (0-400 μM), then beads with immobilized compound
NSCLC patients [2] = details: unselected patient population; cited from earlier work
patients with NSCLC = details: second line after cisplatin-based first-line regimens failed; ECOG 0, 1 or 2; cited from earlier work
NSCLC = details: second line therapy of NSCLC; cited from earlier work

Chain of PINCH (P48059 2-325): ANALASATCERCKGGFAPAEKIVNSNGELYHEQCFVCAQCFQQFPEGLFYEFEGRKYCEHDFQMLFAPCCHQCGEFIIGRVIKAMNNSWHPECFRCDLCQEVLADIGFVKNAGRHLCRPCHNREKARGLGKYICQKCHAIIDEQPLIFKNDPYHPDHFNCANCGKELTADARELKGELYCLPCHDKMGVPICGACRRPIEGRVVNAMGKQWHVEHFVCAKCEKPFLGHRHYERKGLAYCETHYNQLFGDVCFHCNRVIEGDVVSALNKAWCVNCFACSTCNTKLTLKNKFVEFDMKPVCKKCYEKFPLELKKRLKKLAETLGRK
Chain of PINCH (Q13418 whole entry partner): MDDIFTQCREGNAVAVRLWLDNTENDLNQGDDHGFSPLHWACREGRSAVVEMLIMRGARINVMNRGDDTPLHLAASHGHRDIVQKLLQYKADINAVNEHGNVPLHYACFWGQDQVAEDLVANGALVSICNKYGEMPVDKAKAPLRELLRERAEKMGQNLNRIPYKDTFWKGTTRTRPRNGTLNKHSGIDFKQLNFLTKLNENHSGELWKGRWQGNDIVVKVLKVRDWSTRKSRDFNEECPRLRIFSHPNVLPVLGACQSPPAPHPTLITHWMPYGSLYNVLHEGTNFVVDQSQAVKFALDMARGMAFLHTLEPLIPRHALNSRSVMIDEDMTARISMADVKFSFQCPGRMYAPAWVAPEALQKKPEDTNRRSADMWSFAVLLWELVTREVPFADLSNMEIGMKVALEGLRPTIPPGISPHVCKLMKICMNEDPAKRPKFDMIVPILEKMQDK
Chain of PINCH (Q9NVD7 2-372 partner): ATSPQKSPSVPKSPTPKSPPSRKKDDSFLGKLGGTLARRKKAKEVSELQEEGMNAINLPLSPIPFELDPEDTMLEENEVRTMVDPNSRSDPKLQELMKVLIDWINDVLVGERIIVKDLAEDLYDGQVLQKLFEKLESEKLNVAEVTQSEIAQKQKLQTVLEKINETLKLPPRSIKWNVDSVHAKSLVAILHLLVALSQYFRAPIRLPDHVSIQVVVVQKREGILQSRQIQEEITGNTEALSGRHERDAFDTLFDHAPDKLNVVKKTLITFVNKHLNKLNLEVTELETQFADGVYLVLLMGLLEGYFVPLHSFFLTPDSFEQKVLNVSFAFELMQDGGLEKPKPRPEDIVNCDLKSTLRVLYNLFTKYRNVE
Chain of alpha-parvin (Q9NVD7 2-372 limits assumed): as the sequence (Q9NVD7 2-372 partner) above
Chain of alpha-parvin (Q13418 whole entry partner): as the sequence (Q13418 whole entry partner) above
Chain of alpha-parvin (P48059 2-325 partner limits assumed): as the sequence (P48059 2-325) above
Chain of ILK (Q13418 whole entry): as the sequence (Q13418 whole entry partner) above

Row | SMILES | Signal Reduction (%) alpha-parvin (alpha-parvin) [%] | ILK expression level (H358 cells) | PINCH expression level (H358 cells) | Level of E-cadherin (H358 cells) | Signal Reduction (%) ILK (ILK) [%] | Survival of NSCLC patients (NSCLC patients [1]) | Signal Reduction (%) PINCH (PINCH) [%] | Clinical benefit (NSCLC patients [2]) | Survival (patients with NSCLC) | Efficacy compared with docetaxel (NSCLC) | Side effects compared with docetaxel (NSCLC)
1 | C#Cc1cccc(Nc2ncnc3cc(OCCOC)c(OCCOC)cc23)c1 [Erlotinib hydrochloride, erlotinib hydrochloride] | 79.5 | do not change | do not change | remained unchanged | 77.3 | significantly prolongs and improves the survival | 87.7 |  |  |  | 
2 | COc1cc2ncnc(Nc3ccc(F)c(Cl)c3)c2cc1OCCCN1CCOCC1 [Gefitinib, gefitinib] | 0.0 | not so pronounced | not so pronounced | fails to inhibit the TGFb3-mediated decrease of E-cadherin levels |  |  | 0.0 | does not seem to confer clinical benefit |  |  | 
3 | CC(=O)O[C@@]12CO[C@@H]1C[C@H](O)[C@@]1(C)C(=O)[C@H](O)C3=C(C)[C@@H](OC(=O)[C@H](O)[C@@H](NC(=O)OC(C)(C)C)c4ccccc4)C[C@@](O)([C@@H](OC(=O)c4ccccc4)[C@H]21)C3(C)C [docetaxel] |  |  |  |  |  |  |  |  | improved survival |  | 
4 | Nc1nc2[nH]cc(CCc3ccc(C(=O)N[C@@H](CCC(=O)O)C(=O)O)cc3)c2c(=O)[nH]1 [pemetrexed] |  |  |  |  |  |  |  |  |  | clinically equivalent efficacy | significantly fewer side effects

Reference: US20120095029A1, “IPP COMPLEX AS MARKER FOR ERLOTINIB TREATMENT” (Hoffmann-La Roche Inc., priority 2010, published 2012)
